Results as given in patent US20200247849A1, “PEPTIDE AGONISTS AND ANTAGONISTS OF TLR4 ACTIVATION” (PEPTICOM LTD, priority 2016, published 2020).
Non-standard residues stand in square brackets, D forms with d. No end group written: not given here. Chg = N[C@H](C(=O)O)C1CCCCC1; Nphe = O=C(O)CNCc1ccccc1; Ava = NCCCCC(=O)O

Key:
[1] = test system: whole human blood; assay: IL-1β ELISA after 24-hour incubation with whole human blood; format: cell-based; set-up: key: 0: no effect of the compound alone/no effect of the compound in addition to LPS alone; +: small effect of the compound alone/small effect of the compound in addition to LPS alone; ++: intermediate effect of the comp. alone/intermediate effect of the comp. in add. to LPS alone; +++: strong effect of the compound alone/strong effect of the compound in addition to LPS alone; settings: for IL-1β ELISA after blood activation Induction with compound + LPS: LPS 100 pg/ml
Procedure: One attribute of TLR-4 activation is the release of the pro-inflammatory cytokine Interleukin-1β (IL1β). Several of our discovered peptides were tested for IL1β induction by ELISA following a 24-hour incubation with whole human blood. IL1β induction was measured with increasing dosage of the peptides alone, or with a fixed dosage of LPS (100 pg/ml).

[2] = test system: TLR4 with MD2 or CD14 co-receptor; assay: Reporter gene (SEAP) PAMP assay in NIH3T3 cells expressing TLR4 with MD2 or CD14 co-receptor; format: cell-based; set-up: key to PAMP assay (NIH3T3 cells) Induction with compound alone / PAMP assay (NIH3T3 cells) Induction with compound + LPS: 0: no effect of the compound alone/no effect of the compound in addition to LPS alone; +: small effect of the compound alone/small effect of the compound in addition to LPS alone; ++: intermediate effect of the comp. alone/intermediate effect of the comp. in add. to LPS alone; +++: strong effect of the compound alone/strong effect of the compound in addition to LPS alone; settings: for Co-Receptor/s: co-receptor (MD2/CD14) via which the effect occurs; for Co-Receptor/s / Activity: summary of FIGS. 6A-6V; for Activity: type of effect (activation/inhibition) on TLR4
Description: FIGS. 6A-6V show the dose response inhibitor/activator effects of the designed peptides using a reporter gene assay. The reporter gene assay is composed of NIH3T3 cells transfected with either MD2 or CD14 along with TLR4 and the NF-κB-inducible reporter gene Secreted Alkaline Phosphatase (SEAP) to monitor TLR4 activation (Burger-[…] al. 2010, A new cell-based innate immune receptor assay for the examination of receptor activity, ligand specificity, signaling pathways and the detection of pyrogens. […] The receptors are coupled to for the detection of inhibitory activity, cells were treated with the peptide prior to exposure to LPS and the response to LPS is measured at variable peptide doses (as labeled). The detection of cell activation was performed using the peptide alone, at variable doses, as indicated in the respective graphs. The following presents in more details the experimental procedures. Experimental setup: The cell-based Assay is performed with different NIH3T3 reporter cell lines (NIH 3T3 PRR SEAP-TLR4/CD14 or -TLR4/MD2) and the control cell line NIH 3T3 SEAP. The NIH3T3 SEAP cell line is used in order to determine the background of the alkaline phosphatase expression. It is a cell line stably transfected with only the reporter gene plasmid. For each assay a vial of the master cell bank is revitalized and seeded in a standard cell culture flask (75 cm^2 T-Flask) at day one. Cells are cultured in 20 ml culture media (DMEM supplemented with 10% FCS (heat inactivated), 50 units/ ml penicillin, 0.05 mg/ ml streptomycin and 2 mmol/ L L-glutamine). The cells are cultured at 37° C. in a 5% CO2 humidified atmosphere. At Day 1: For the PAMP Assay cells are seeded in a 96-well plate at a density of 0.3.10^5 cells/well in a final volume of 100 μl culture media (DMEM, 10% FCS (heat inactivated)). To ensure equal culture conditions the 96-well cell culture plates are placed side by side and cultivated in a humidified CO2 incubator (37° C. and 5% CO2). […] After a cultivation period of 24 h the media is removed and replaced with the respective volume of fresh media (DMEM, 0.5% FCS (heat inactivated)).The lyophilized peptides are stored in a freezer at -20° C. upon arrival. For the experiments they are dissolved in DMSO (to the highest possible concentration). Before opening the peptides are allowed to equilibrate to room temperature (in order to reduce the uptake of moisture). For each experiment the stock solution is diluted in DMEM to the appropriate working concentration. […] Sonication was also used to help dissolve the peptides. Immediately after replacing the media, the diluted peptides are applied in a serial dilution to the cells and directly after that the agonist is added to the cells. After adding peptide and […] the final volume in each well of a 96 well plate amounts 100 μl/well. The culture medium containing 0.5% FCS is used as a negative reference item. The induction is performed for 18 h at 37° C. and 5% CO2. At Day 3: To determine the final SEAP value, 50 μl of the supernatant is carefully transferred in a new 96-well plate (Greiner-F-plate) and 50 μl of the substrate (pNPP; p-nitrophenyl phosphate) is added. SEAP catalyzes the hydrolysis of pNPP to the final product para-nitrophenol (yellow) which can be detected by a photometric analysis using an UV-VIS reader at 405 nm. […] The results of FIGS. 6A-6V with respect to peptide activity are summarized in Table 1 above with respect to the type of effect of the respective peptide (activation/inhibition) and with respect to the corresponding co-receptor (MD2/CD14). Data concerning SEQ ID No. 22 with respect to co-receptor CD14 is in preparation.

Substance | IL-1β ELISA after blood activation Induction with compound + LPS [1] | IL-1β ELISA after blood activation Induction with compound alone [1] | Co-Receptor/s [2] | PAMP assay (NIH3T3 cells) Induction with compound + LPS [2] | PAMP assay (NIH3T3 cells) Induction with compound alone [2] | Activity [2]
1(N′) Ava-OH-2Leu-3Tyr-4Met-5Ser-6Leu-7Lys-8Trp-9Met (C′) ([Ava]LYMSLKWM; also: Ava-OH) [SEQ ID No. 4 (M1)] | +++ | + | MD2/CD14 | ++ | ++ | Activator
(N′) 1(S)Glu-2(S)Trp-3Gly-4(S)Trp-5(S)Arg-6(S)Met-7(R,S)Ile-8Bzl(Gly) (C′) (EWGWRMI[Nphe]; also: Ile7 (R,S)) [SEQ ID No. 2 (M1)] | – | – | MD2/CD14 | – | – | Activator
(N′) Chg-2Leu-3Tyr-4Met-5Ser-6Leu-7Lys-8Trp-9Met (C′) ([Chg]LYMSLKWM) [SEQ ID No. 4 (M2)] | +++ | + | MD2/CD14 | ++ | ++ | Activator
EWGWRMII (Activator) [SEQ ID No. 2] | – | – | MD2/CD14 | – | – | Activator
ILYKSLKWM (Activator) [SEQ ID No. 5] | – | – | MD2/CD14 | – | – | Activator
ILYMSLKWM (Activator) [SEQ ID No. 4] | +++ | 0 | MD2/CD14 | +++ | + | Activator
KKLMLII (at the C-terminus CH3 replace COOH) (KKLMLII-CH3) [SEQ ID No. 12] | – | – | MD2/CD14 | – | – | Inhibitor
MIPYGMRMM (Inhibitor) [SEQ ID No. 10] | – | – | MD2 | – | – | Inhibitor
PLWMMIKSMGSMMEMKK (Activator) [SEQ ID No. 3] | – | – | MD2 | – | – | Activator
RYETMSIMIKSGGKG (RYETMSIMIKSGGKY; Activator) [SEQ ID No. 1] | – | – | MD2/CD14 | – | – | Activator
RYETMSIMIKSGGKG-(methyl group replacing C-terminus) [SEQ ID No. 1 (M3)] | 0 | 0 | MD2/CD14 | + | + | Activator
RYETMSIMIKSGGKY (not fully specified) [SEQ ID No. 1 (M1)] | +++ | ++ | MD2/CD14 | + | + | Activator
RYETMSIMIKSGGKY-(methyl group replacing C-terminus) (RYETMSIMIKSGGKY-CH3) [SEQ ID No. 1 (M2)] | 0 | 0 | MD2/CD14 | + | + | Activator
c[IGFMMMKKEF] (cyclic; Activator, cyclic) [SEQ ID No. 8] | – | – | MD2/CD14 | – | – | Activator
c[IWSRSW] (cyclic; Inhibitor, cyclic) [SEQ ID No. 15] | – | – | MD2 | – | – | Inhibitor
c[MLSFRM] (cyclic; Activator, cyclic) [SEQ ID No. 6] | +++ | + | MD2/CD14 | ++ | ++ | Activator
c[SIWDTMW] (cyclic; Inhibitor, cyclic) [SEQ ID No. 14] | – | – | MD2 | – | – | Inhibitor
c[SWEFLW] (cyclic; Inhibitor, cyclic) [SEQ ID No. 13] | – | – | MD2/CD14 | – | – | Inhibitor
c[geldkftm] (all D-amino acids) (cyclo(G[dE][dL][dD][dK][dF][dT][dM]); SMILES CSCC[C@H]1NC(=O)[C@@H]([C@H](C)O)NC(=O)[C@@H](Cc2ccccc2)NC(=O)[C@@H](CCCCN)NC(=O)[C@@H](CC(=O)O)NC(=O)[C@@H](CC(C)C)NC(=O)[C@@H](CCC(=O)O)NC(=O)CNC1=O) [SEQ ID No. 21] | – | – | MD2/CD14 | – | – | Activator
c[gfwseeeksl] (all D-amino acids) (cyclo(G[dF][dW][dS][dE][dE][dE][dK][dS][dL]); SMILES CC(C)C[C@H]1NC(=O)[C@@H](CO)NC(=O)[C@@H](CCCCN)NC(=O)[C@@H](CCC(=O)O)NC(=O)[C@@H](CCC(=O)O)NC(=O)[C@@H](CCC(=O)O)NC(=O)[C@@H](CO)NC(=O)[C@@H](Cc2c[nH]c3ccccc23)NC(=O)[C@@H](Cc2ccccc2)NC(=O)CNC1=O) [SEQ ID No. 22] | – | – | MD2/CD14 | – | – | Activator
c[gwlwrsl] (all D-amino acids) (cyclo(G[dW][dL][dW][dR][dS][dL]); SMILES CC(C)C[C@H]1NC(=O)[C@@H](CO)NC(=O)[C@@H](CCCNC(=N)N)NC(=O)[C@@H](Cc2c[nH]c3ccccc23)NC(=O)[C@@H](CC(C)C)NC(=O)[C@@H](Cc2c[nH]c3ccccc23)NC(=O)CNC1=O) [SEQ ID No. 19] | – | – | MD2/CD14 | – | – | Activator
c[gwwwral] (all D-amino acids) (cyclo(G[dW][dW][dW][dR][dA][dL]); SMILES CC(C)C[C@H]1NC(=O)[C@@H](C)NC(=O)[C@@H](CCCNC(=N)N)NC(=O)[C@@H](Cc2c[nH]c3ccccc23)NC(=O)[C@@H](Cc2c[nH]c3ccccc23)NC(=O)[C@@H](Cc2c[nH]c3ccccc23)NC(=O)CNC1=O) [SEQ ID No. 20] | – | – | MD2/CD14 | – | – | Inhibitor
rmmmw (all D-amino acids, CH3 group replaces C-term) ([dR][dM][dM][dM][dW]-CH3) [SEQ ID No. 16] | – | – | MD2/CD14 | – | – | Activator
tiymmmtmkg (all D-amino acids, both isoleucine chiral centers in D-enantiomer) [SEQ ID No. 18] | – | – | CD14 | – | – | Activator
wwikd (all D-amino acids, both isoleucine chiral centers in D-enantiomer) [SEQ ID No. 17] | – | – | MD2/CD14 | – | – | Activator
